“Also recorded” adds a separate entry of the source.
What was measured:
[1] = test system: neural stem cells in the sub-ventricular zone (SVZ) of the rat brain; test: In vivo i.c.v. infusion, neural stem cells of the SVZ (BrdU, DCX immunohistochemistry)
Experimental: Male Long-Evans rats weighing 300-325 g (3-4 months old) were housed following a natural day-night cycle with food and water ad libitum. Prior to surgery, rats were anesthetized with equithesin (3 ml/kg, i.p.) and then placed on a stereotaxic frame. Using an electrode micromanipulator, the outlet of an osmotic micropump was implanted into the left cerebral ventricle following the coordinates D=3.4 mm, L=1.4 mm and AP=0.92 mm caudal to bregma. The tank of the osmotic pump was implanted in a subcutaneous pocket in the midscapular area of the back of the rat. After surgery, rats were placed on a heating blanket for recovery. During the whole procedure, the body temperature was monitored and kept stable at 37° C. SP-224 at 375 μM solubilized in polypropylene glycol/glycerol/distilled water (50/25/25) was perfused by i.c.v. route at 5 μl per hour for 2 weeks. Rats were sacrificed 3 weeks after the end of the brain infusion by intracardiac perfusion, first with a washing solution (NaCl 8 g/l, dextrose 4 g/l, sucrose 8 g/l, calcium chloride 0.23 g/l, sodium cacodylate anhydrous 0.25 g/l, in deionized water) and then with fixative cacodylate buffer (sucrose 40 g/l, paraformaldehyde 40 g/l, sodium cacodylate anhydrous 10.72 g/l, in deionized water). Brains were stored in fixative cacodylate buffer for an additional week before being embedded in paraffin. To study the neural stem cells proliferation rats were daily injected with a BrdU solution at 100 mg/kg. The first injection took place the day following the surgery and the last injection was performed the day previous to the euthanasia.
Brains were embedded in a paraffin block […] and cut into 20-μm thick slices.
This experiment was conducted to validate the results obtained in vitro and to assess the ability of the SP-224 to induce a neuronal differentiation of the neural stem cells present in the sub-ventricular zone (SVZ) of the rat brain. The SP-224 was administered in a solution at 375 μM by intra-cerebroventricular route for 2 weeks, corresponding to a total quantity of […] of SP-224 per rat. […]

[2] = test system: P19 cells; test: Neuronal and glial markers in differentiated P19 cells (immunocytochemistry); format: cell-based, mouse
Experimental: (§1) Mouse embryonic teratocarcinoma P19 cells were cultured at 37° C. in […] in Alpha Minimum Essential medium with ribonucleosides and deoxyribonucleosides containing bovine calf serum (7.5%) and fetal bovine serum (2.5%) on 13 mm diameter glass cover-slip. PC12 cells (rat pheochromocytoma neurons) were cultured at 37° C. and 5% CO2 in RPMI 1640 medium devoid of glutamine and supplemented with 10% fetal bovine serum and 5% horse serum on 13 mm diameter glass cover-slip. When cells reached 70% confluence, the medium was replaced fresh medium containing 90 μM SP-224. P19 and PC12 cells were then incubated for 2 days before SP224 was washed out and replaced by standard medium. The culture medium was changed every 2 days for 5 days or every 2 days for 30 days before cells were fixed for immunocytochemistry. The NT2 cells were treated for 5 days and washed-out for 10 days.
P19 cells were fixed with methanol at −20° C. for 15 minutes before being permeabilized for 30 minutes at room temperature with 1×PBS pH=7.4 containing 0.1% Triton 100×. Cell were incubated for 24 hours at 4° C. with antibodies raised against GAP43 (1/1000), DCX (1/3000), βIII Tubulin (1/500), synaptophysin (1/200), MAP2 (1/500), ChAT (1/2000), GFAP (1/1000) or CNPase (1/250). […] Cells nucleus was counterstained using DAPI or ethidium bromide.
The ability of SP-224 to induce the neuronal differentiation of the P19 cells was assessed as follows. P19 cells were treated for 2 days followed by a 5 days wash out period (FIG. 26). The neuronal markers expression was also studied after 28 days (FIG. 27) in order to in order to verify whether the expression observed at 5 days was temporary or permanent. No neuronal marker was observed on the control except for the synaptophysin for which the staining was, however, very weak (FIG. 26C). […] After 28 days of wash out the neuronal differentiation is even more important.

[3] = test system: NT2 human neuronal cells; test: Neurites-like sprouting in NT2 cells; format: cell-based; details: 90 μM, 5 days, then 10 days wash-out
Experimental: as §1
(§2) The above-referenced cell lines were used because they have been extensively used as a model of neuronal differentiation (Houldsworth et al., 2002; Chou et al., 2003; Das et al., 2004). To induce the sprouting, cells were plated in 6-well plates and treated for 2 days (P19) or 5 days (PC12 and NT2) with 90 μM SP-224 before being washed with fresh medium and cultured for 5 (P19) or 10 (PC12 and NT2) more days. […] Meantime, we observed a growth arrest of the treated-cells. […]

[4] = test system: PC12 rat pheochromocytoma cells; test: Neurites-like sprouting in PC12 cells; format: cell-based; details: 90 μM, then wash-out
Experimental: as §1, §2

[5] = test system: Mouse embryonic teratocarcinoma P19 cells; test: Neurites-like sprouting in P19 cells; format: cell-based; details: 90 μM, 2 days, then 5 days wash-out
Experimental: as §1, §2

[6] = 375 μM i.c.v., 5 μl per hour for 2 weeks, sacrifice 3 weeks later
[7] = 2 days treatment, 28-30 days wash out

CC1CCC2(NC1)OC1CC3C4CC=C5CC(O)CCC5(C)C4CCC3(C)C1C2C [SP224, (20α)-25ζ-methyl-(22R,26)-azacyclofurost-5-en-3ζ-ol]
toxic effect on the brain tissue ([1]; 375 μM i.c.v. for 2 weeks): without any apparent toxic effect on the brain tissue | BrdU immunostaining, neural stem cell self-renewal/proliferation in the SVZ [1, 6]: able to induce a self-renewal of the neural stem cells in the SVZ; also recorded: dramatic increase of the BrdU | expression of early neuronal marker DCX in the SVZ cells [1, 6]: induced the expression of the early neuronal marker DCX | astrocyte marker GFAP / differentiation into astrocytes ([2]; 90 μM 2 days, 5 days SP-224 free medium): no positive GFAP signal was detected; also recorded: did not trigger the differentiation of the P19 cells into astrocytes | expression of ChAT ([2]; 90 μM 2 days, 5 days wash out): strong expression | expression of MAP2 ([2]; 90 μM 2 days, 5 days wash out): strong expression | expression of migrating neuroblasts marker DCX ([2]; 90 μM 2 days, 5 days wash out): strongly expressed | expression of synaptophysin ([2]; 90 μM 2 days, 5 days wash out): strong expression | expression of βIII tubulin ([2]; 90 μM 2 days, 5 days wash out): strong expression | network of axons and dendrites (βIII tubulin staining) [2, 7]: dramatically extended | synaptophysin labeling [2, 7]: established synaptic connections | sprouting of NT2 cells [3]: significant sprouting | sprouting of PC12 cells [4]: significant sprouting | sprouting of P19 cells [5]: significant sprouting

Reference: US20060009433A1, “Neuroprotective spirostenol pharmaceutical compositions” (priority 2003, published 2006)
